Test results published in PMC12436592 (Nature Communications, 2025).
“And” between values parts separate entries of the source, which are not always exact repeats. Equal values may be shown once.

Tests used:
[1] = tested on: T1, hP2X2R; assay: Calcium influx assay, 1321N1 astrocytoma cells, ATP EC80; type: cell-based, human; details: 10 μM antagonist, ATP 1000 nM
T1 construct: expressed in transfected cells
Text: (§1) . For 1321N1 astrocytoma cells stably expressing the human, rat, or mouse P2X7Rs, or hP2X2Rs or hP2X4Rs, the fluorescent Ca^2+-chelating dye Fluo-4 acetoxymethyl ester (Fluo-4 AM, Thermo Fisher Scientific, Dreieich, Germany) was used. For 1321N1 astrocytoma cell lines recombinantly expressing the hP2X1Rs or hP2X3Rs, the FLIPR® Calcium 5 Assay Kit (Molecular Devices, San José, CA, USA) was employed. Human, rat, and mouse P2X7Rs as well as hP2X1Rs, hP2X2Rs, hP2X3Rs, and hP2X4Rs were recombinantly expressed in 1321N1 astrocytoma cells using a retroviral expression system[72]–[74].
(§2) On the first day, 45,000 cells per well (30,000 cells for the human P2X3 receptor-expressing cells) were seeded into a 96-well polystyrene microplate with a black, flat bottom in a final volume of 200 µL. After overnight incubation at 37 °C and 10% CO2 (5% CO2 for the human P2X3R-expressing cell line), the medium was removed by inverting the plate, and the cells were loaded with dye solution. Hanks’ balanced salt solution (HBSS, Thermo Fisher Scientific, Dreieich, Germany) was used as the assay buffer for human P2X1R, P2X2R, P2X3R, and P2X4R. For the P2X7Rs, a different assay buffer was used: 150 mM sodium-glutamate, 5 mM KCl, 0.5 mM CaCl2, 0.1 mM MgCl2, 10 mM D-glucose, 25 mM 4-(2-hydroxyethyl)-1-piperazineethanesulfonic acid (HEPES), pH 7.4. The dye solutions were freshly prepared. The Fluo-4 AM solution contained 3 µM of Fluo-4 AM in assay buffer and 1% of the non-ionic detergent Pluronic F-127® (Sigma-Aldrich, Taufkirchen, Germany). The Calcium 5 dye, used for hP2X1Rs and hP2X3Rs, was prepared in HBSS buffer. Cells were loaded with Fluo-4 AM and incubated for 1 h at room temperature with gentle shaking (100 rpm), while those loaded with the Calcium 5 dye were incubated for 1 h at 37 °C. After incubation, the dye solution was carefully removed from the plate, and buffer was added to the cells for the evaluation of agonists. […] The agonist solution was prepared in a 96-well transparent plate, obtaining the respective EC80 values. As a control, assay buffer without the test compound was used. After 30 min of incubation with antagonist, the plates were measured using a fluorescence imaging plate reader NOVOstar (BMG Labtech GmbH, Offenburg, Germany) at an excitation wavelength of 485 nm and an emission wavelength of 520 nm, for 30 s at 0.4 s intervals. Calcium influx measurements were then initiated by automatic addition of 20 µL of agonist solution by the plate reader’s pipetting device. Data were analyzed using Microsoft Excel and GraphPad Prism (Version 8.0, San Diego, CA, USA). EC80 and IC50 values were calculated using nonlinear regression with a sigmoidal dose-response equation.

[2] = tested on: T2, hP2X4R; assay: as above; type: cell-based, human; details: 10 μM antagonist, ATP 300 nM
T2 construct: expressed in transfected cells
Text: as §1, §2

[3] = molecular target: T3, rP2X7R (Rattus norvegicus, UniProt Q64663); assay: Calcium influx assay, 1321N1 astrocytoma cells, BzATP EC80; type: cell-based; design: expressed in transfected cells; details: for IC50: 1321N1 cells, BzATP EC80, mean ± SD
T3 sequence (Q64663 1-595): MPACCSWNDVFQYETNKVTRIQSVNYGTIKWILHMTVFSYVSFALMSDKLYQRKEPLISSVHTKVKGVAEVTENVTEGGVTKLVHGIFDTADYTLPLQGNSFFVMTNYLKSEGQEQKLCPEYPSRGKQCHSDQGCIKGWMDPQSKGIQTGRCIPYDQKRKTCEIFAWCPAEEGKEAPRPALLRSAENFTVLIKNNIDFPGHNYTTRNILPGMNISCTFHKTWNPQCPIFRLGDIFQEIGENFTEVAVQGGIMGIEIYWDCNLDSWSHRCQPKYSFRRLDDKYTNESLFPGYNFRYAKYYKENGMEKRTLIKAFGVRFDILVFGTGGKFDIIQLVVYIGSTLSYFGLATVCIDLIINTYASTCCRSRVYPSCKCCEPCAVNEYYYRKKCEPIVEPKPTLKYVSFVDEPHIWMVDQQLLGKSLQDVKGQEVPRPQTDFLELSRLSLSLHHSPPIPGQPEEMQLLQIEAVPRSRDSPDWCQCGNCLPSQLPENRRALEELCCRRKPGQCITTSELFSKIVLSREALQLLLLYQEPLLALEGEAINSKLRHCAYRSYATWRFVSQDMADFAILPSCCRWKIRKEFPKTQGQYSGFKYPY
Text: as §1, §2

SMILES | % inhibition ± SD at 10 μM, hP2X2R [1] [%] | % inhibition ± SD at 10 μM, hP2X4R [2] [%] | activity at 0.03 µM ([3]; 1321-N1, Log(c) M -7.52288, read-out: normalized calcium signal, rP2X7R IC50 curve) [%] | activity at 0.01 µM ([3]; 1321-N1, Log(c) M -8, read-out: normalized calcium signal, rP2X7R IC50 curve) [%] | IC50 [3] [nM] | normalized calcium signal, rP2X7R IC50 curve ([3]; Log(c) M -7.52288, 0.03 µM) | normalized calcium signal, rP2X7R IC50 curve ([3]; Log(c) M -8, 0.01 µM) | normalized calcium signal, rP2X7R IC50 curve ([3]; Log(c) M -8.52288, 0.003 µM) | activity at 0.003 µM ([3]; 1321-N1, Log(c) M -8.52288, read-out: normalized calcium signal, rP2X7R IC50 curve) [%] | activity at 0.001 µM ([3]; 1321-N1, Log(c) M -9, read-out: normalized calcium signal, rP2X7R IC50 curve) [%] | activity at 0.0003 µM ([3]; 1321-N1, Log(c) M -9.52288, read-out: normalized calcium signal, rP2X7R IC50 curve) [%] | normalized calcium signal, rP2X7R IC50 curve ([3]; Log(c) M -9, 0.001 µM) | times more potent than UB-ALT-P30 on the rP2X7R ([3]; calcium influx)
O=C(NNc1ccccc1Cl)C12CC3CC(CC(C3)C1)C2 [UB-ALT-P30, reference compound] | 29 ± 7 | 44 ± 14 | 94.8 | 98.3 | 116 ± 50 | 96.1595 and 98.0559 and 102.654 and 103.189 | 98.7308 and 105.449 and 107.576 and 114.231 and 110.835 | 87.0316 and 95.5173 and 98.7016 and 89.3009 and 111.685 and 110.916 and 108.743 | – | – | – | – | –
CC12CC3CC1(C)C1(C)CC3(C(=O)NNc3ccccc3Cl)CC21C [UB-MBX-46] | 15 ± 9 | 41 ± 19 | – | – | 40.6 ± 10.4 | – | 92.0673 and 92.0463 and 93.4263 and 100.969 and 74.9729 and 70.4733 | 98.336 and 95.4706 and 107.675 and 91.9395 | 92.9 | 83 | 92.1 | 97.4351 | ~ 3 x
